Reference: US9808434B2, “Compound for treating cancer and diabetes” (CITY OF HOPE, priority 2011, dated 2017)

Tests used:
U251 glioma cells = assay: Combination index with chemotherapy drugs, U251; format: cell-based
Description: Effects of combination of COH-SR4 and a chemotherapy drug such as TMZ, SN38, CPT-11, and 5-FU were studied by combination index (CI) theorem and plot using the method described in Chou (“Experimental Design, and Computerized Simulation of Synergism and Antagonism in Drug Combination Studies,” Pharmacological Reviews, Vol. 58, No. 3), which is incorporated herein by reference in its entirety.
COH-SR4 and a chemotherapy drug (TMZ, SN38, CPT-11, or 5-FU) were dissolved in DMSO individually, and then diluted to the appropriate concentration in the same cell culture media before applying to cells of each cell line. After 4 days, the amount of ATP present in the cell lysates were assessed using Progema's CellGlo kit. The CI of each combination of COH-SR4 and the chemotherapy drug was calculated and plotted against the concentration of COH-SR4 for each concentration of the chemotherapy drug used.

HL-60 cells [1] = assay: Differentiation of HL-60 cells (Giemsa-Wright, NBT, CD11b/CD14); format: cell-based, human; details: 48 hours; for surface expression of CD11b and CD14: 0.5-3 μM, flow cytometry; for morphologic changes (Giemsa-Wright stain), myeloid differentiation: 2-10 μM
Description: HL-60 cells were incubated with a test compound at various concentrations (2˜10 μM), DMSO, or without any test compound for 48 hours, and then examined for morphologic changes by Giemsa-Wright stain. The results were observed microscopically and shown in FIG. 13 at a magnification of ×400. […] Such results were similar to cells treated with DMSO or all-trans retinoic acid (ATRA), wherein DMSO or ATRA terminally differentiated HL-60 cells into myeloid cells (FIG. 13).
HL-60 cells (2.5×10^5) were treated with or without a test compound for 48 hours and then stained with NBT, wherein positively-stained cells appeared as purple black (FIG. 14A). NBT positive cells were counted and the overall percentage was calculated based on 200 total cells counted for each treatment. Three˜four independent experiments were carried out, and data are shown as mean±SE (FIG. 14B). This measurement of “oxidative burst” by the NBT assay is a well-known and extensively tested functional marker of HL-60 cell differentiation.
HL-60 cells (2.5×10^5) were incubated with a test compound (COH-SR4 or COH-SR9) at a concentration of 0.5 μM, 1 μM, 2 μM, or 3 μM, or without any COH-SR compound for 48 hours and then assessed for the surface expression of CD11b (FIG. 14C) and CD14 (FIG. 14D) by flow cytometry, respectively. Three-four independent experiments were carried out, and data are shown as mean±SE (FIGS. 14C and 14D).

[2] = test system: NCI-60 human tumor cell lines; assay: NCI-60 DTP Human Tumor Cell Line Drug Screening; format: cell-based; details: leukemia, NSCLC, colon, CNS, melanoma, ovarian, renal, prostate, breast lines
Excerpt: Moreover, preliminary data from the NCI-60 DTP Human Tumor Cell Line Drug Screening (http://dtp.nci.nih.gov/branches/btb/ivclsp.html) further confirmed the observations on these COH-SR compounds. […] A value of 100 meant no growth inhibition. A value of 20 meant 80% growth inhibition. A value of 0 meant no net growth over the course of the experiment. A value of −40 meant 40% lethality. A value of −100 meant all cells were dead.

HL-60 cells [3] = assay: HL-60 apoptosis markers (DNA ladder, DiOC6(3), caspases, cytochrome c, PARP); format: cell-based, human; details: for DiOC6(3) fluorescence (mitochondrial depolarization): 4 hours; for cytochrome c release and PARP: 24 hours; for cytochrome c release and PARP / caspase 3/7 and caspase 9 activity: 0.5-3 μM; for caspase 3/7 and caspase 9 activity: 48 hours; for DNA fragmentation (DNA ladder): agarose gel
Description: DNA was stained with ethidium bromide after electrophoresis on 1.5% agarose gel and then visualized under UV light.
To test whether mitochondrial membrane disruption was involved in the apoptotic effects of COH-SR4 and COH-SR9, fluorescent cationic lipophilic dye DiOC6(3) was used and monitored using flow cytometry. HL-60 cells were exposed to various concentrations of COH-SR4 or COH-SR9 for 4 hours. After incubation, cells were rinsed and stained with the cationic fluorescent dye DiOC6(3) and then the overall fluorescence was analyzed by flow cytometry. […] Reduction of the fluorescence intensity of DiOC6(3) is indicative of the cells undergoing mitochondrial depolarization and loss of Δψmt. This effect, which has been commonly observed with other anticancer drugs irrespective of the cell type, generally defines an early but already irreversible stage of apoptosis.
HL-60 (2.5×10^4) cells were seeded into 96-well plates and incubated with a test compound (COH-SR4 or COH-SR9) at various concentrations (0.5˜3 μM) for 48 hours, then caspase-3/7 or caspase-9 activity was measured with the Caspase Glo kit (Promega), respectively. Data are expressed as mean±SE from 3 independent experiments (FIG. 18A), “*” in the figure means p<0.05 when compared to the untreated control.
Treatment of COH-SR compounds also triggered release of cytochrome c (14 kDa) into the cytoplasm and cleavage of full length PARP (116 kDa) into the 89 kDa fragment, all hallmarks of cells undergoing apoptosis (FIG. 18B). HL-60 cells were treated with COH-SR4 or COH-SR9 at various concentrations (0.5 μM˜3 μM) or nothing for 24 hours. Cytochrome c (14 kDa) and cleavage of full length PARP (116 kDa) into the 89 kDa fragment were analyzed in untreated HL-60 cells and HL-60 cells treated with COH-SR4 or COH-SR9 by Western blot. Numbers below each blot represent fold increase in protein expression relative to the control as quantified by densitometry and calculated with reference to β-actin as an internal standard.

| Structure (SMILES) | combination effect (CI) with CPT-11 (U251 glioma cells; COH-SR4 <0.5 μM + CPT-11 <0.125 μM) | combination effect (CI) with SN-38 (U251 glioma cells; COH-SR4 <0.5 μM + SN-38 <0.001 μM) | combination effect (CI) with TMZ (U251 glioma cells; COH-SR4 <0.5 μM + TMZ 12.5 μM, 4 days) | combination effect (CI) with SN-38 (U251 glioma cells; COH-SR4 >0.5 μM + SN-38 <0.003 μM) | combination effect (CI) with TMZ (U251 glioma cells; COH-SR4 >0.65 μM + TMZ 100 μM) | combination effect (CI) with CPT-11 (U251 glioma cells; COH-SR4 >0.675 μM + CPT-11 >0.5 μM) | superoxide production (NBT-positive cells) (HL-60 cells [1]) | surface expression of CD11b and CD14 (HL-60 cells [1]) | morphologic changes (Giemsa-Wright stain), myeloid differentiation (HL-60 cells [1]) | activity in NCI-60 screening [2] | DiOC6(3) fluorescence (mitochondrial depolarization) (HL-60 cells [3]) | cytochrome c release and PARP (HL-60 cells [3]) | caspase 3/7 and caspase 9 activity (HL-60 cells [3]) | DNA fragmentation (DNA ladder) (HL-60 cells [3]) |
| --- | --- | --- | --- | --- | --- | --- | --- | --- | --- | --- | --- | --- | --- | --- |
| O=C(Nc1cc(Cl)cc(Cl)c1)Nc1cc(Cl)cc(Cl)c1 [COH-SR4, 1,3-bis(3,5-dichlorophenyl) urea] | Synergism | Synergism | Synergism | Additive effects | Additive effects | Additive effects | Induced Superoxide Production | dose-dependent increase in expression of both CD11 b and CD14 | exhibited cytoplasmic vacuolation, reduced nucleus-to-cytoplasmic ratio, and absence of prominent nucleoli | active against | decreased overall DiOC6(3) fluorescent intensity | release of cytochrome c into the cytoplasm and PARP enzyme activation | higher caspase 3/7 and caspase 9 activity | dose-dependent DNA fragmentation |
| Cc1c(Cl)cc(NC(=O)Nc2cc(Cl)cc(Cl)c2)c(O)c1Cl [COH-SR9, 1-(3,5-dichlorophenyl)-3-(3,5-dichloro-2-hydroxy-4-methyphenyl) urea] |  |  |  |  |  |  | Induced Superoxide Production | dose-dependent increase in expression of both CD11 b and CD14 | exhibited cytoplasmic vacuolation, reduced nucleus-to-cytoplasmic ratio, and absence of prominent nucleoli | active against | decreased overall DiOC6(3) fluorescent intensity | release of cytochrome c into the cytoplasm and PARP enzyme activation | higher caspase 3/7 and caspase 9 activity | dose-dependent DNA fragmentation |
